Where two headings read alike, the source gives them in different places.
Experiments:
[1] = system: NCI-H358 cells (K-Ras G12C); experiment: CellTiter-Glo cell viability, NCI-H358; assay type: cell-based, human; details: K-Ras G12C, 5-day treatment, read-out: H358 Cell Viability IC50
Experimental: Note—The following protocol describes a procedure for monitoring cell viability of K-Ras mutant cancer cell lines in response to a compound of the invention. Other RAS isoforms may be employed, though the number of cells to be seeded will vary based on cell line used.
Test compounds (132.5 nl) were directly dispensed into the assay plates containing cells. […] On day 5, assay plates and their contents were equilibrated to room temperature for approximately 30 minutes. […] Luminescence was measured using the PerkinElmer Enspire. Data were normalized by the following: (Sample signal/Avg. DMSO)*100. The data were fit using a four-parameter logistic fit.

[2] = molecular target: KRAS G12C (Homo sapiens (Human), UniProt P01116+P62937, G12C); experiment: Ras-Raf disruption/FRET/MOA assay (BRAF RBD, Cyclophilin A); assay type: biochemical; details: read-out: KRAS G12C FRET IC50
How it was run: (§1)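 TR-FRET read after 1.5 h with 10 nM anti-His Eu-W1024 and 50 nM anti-GST APC, following 3 h at 25 °C of GMPPNP-loaded His6-Ras (12.5 nM), GST-BRAF RBD (50 nM) and Cyclophilin A (25 μM) with compound from 30 μM final, 10 points, 3-fold. IC50 reported; pH 7.3 HEPES, 100 mM NaCl.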

[3] = molecular target: KRAS G12D (Homo sapiens (Human), UniProt P01116+P62937, G12D); experiment: as above; assay type: biochemical; details: read-out: KRAS G12D FRET IC50
How it was run: as §1

[4] = molecular target: KRAS G12S (Homo sapiens (Human), UniProt P01116+P62937, G12S); experiment: as above; assay type: biochemical; details: read-out: KRAS G12S FRET IC50
How it was run: as §1

[5] = molecular target: KRAS G12V (Homo sapiens (Human), UniProt P01116+P62937, G12V); experiment: as above; assay type: biochemical; details: read-out: KRAS G12V FRET IC50
How it was run: as §1

[6] = molecular target: KRAS G13C (Homo sapiens (Human), UniProt P01116+P62937, G13C); experiment: as above; assay type: biochemical; details: read-out: KRAS G13C FRET IC50
How it was run: as §1

[7] = molecular target: KRAS G13D (Homo sapiens (Human), UniProt P01116+P62937, G13D); experiment: as above; assay type: biochemical; details: read-out: KRAS G13D FRET data IC50
How it was run: as §1

[8] = molecular target: KRAS WT (Homo sapiens (Human), UniProt P01116+P62937); experiment: as above; assay type: biochemical; details: read-out: KRAS WT FRET data IC50
How it was run: as §1

[9] = molecular target: NRAS G12C (Homo sapiens (Human), UniProt P01111+P62937, G12C); experiment: as above; assay type: biochemical; details: read-out: NRAS G12C FRET data IC50
How it was run: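 Ras-GMPPNP (12.5 nM), BRAF RBD (50 nM) and 25 μM Cyclophilin A were incubated with compound for 3 h at 25° C, then detected 1.5 h with anti-His Eu and anti-GST APC; IC50 values follow from the reduced TR-FRET ratio.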

[10] = system: K-Ras G12C (NCI-H358 cells); experiment: Potency assay: pERK in NCI-H358 cells; assay type: cell-based, human; details: NCI-H358 cells, 4 hours, read-out: pERK EC50 (H358 KRAS G12C)
How it was run: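 Cells plated the day before were exposed for 4 h at 37° C, 5% CO2 to a 10-point, 3-fold DMSO dilution series (10 mM top stock), in duplicate. Phospho-ERK was read by AlphaLISA SureFire Ultra or by In-Cell Western with DRAQ5 DNA stain, and IC50 came from a 4-parameter sigmoidal fit.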

[11] = system: NCI-H358 (K-Ras G12C); experiment: CellTiter-Glo cell viability assay, NCI-H358; assay type: cell-based, human; details: 5-day treatment, read-out: H358 Cell Viability assay data (K-Ras G12C, IC50)
How it was run: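 Luminescent CellTiter-Glo read-out on day 5 after compound exposure; signal expressed as percent of mean DMSO control; four-parameter logistic fit gives the value.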

[12] = system: Capan-1 cells (K-Ras G12V); experiment: CellTiter-Glo cell viability, Capan-1; assay type: cell-based, human; details: Homo sapiens, CAPAN-1, 120 h, K-Ras G12V, 5-day treatment; read-out: Capan-1 Cell Viability IC50
How it was run: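 Luminescence read on day 5 after ~30 min room-temperature equilibration; compounds added directly to plated cells. Values = (sample signal/avg DMSO)*100, four-parameter logistic fit.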

NRAS G12C, sequence (P01111 whole entry G12C): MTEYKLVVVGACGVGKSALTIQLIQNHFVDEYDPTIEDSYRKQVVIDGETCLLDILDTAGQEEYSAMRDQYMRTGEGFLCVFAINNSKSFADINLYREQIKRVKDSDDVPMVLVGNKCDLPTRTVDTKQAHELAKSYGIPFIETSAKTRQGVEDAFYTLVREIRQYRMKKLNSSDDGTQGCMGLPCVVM
NRAS G12C, sequence (P62937 whole entry): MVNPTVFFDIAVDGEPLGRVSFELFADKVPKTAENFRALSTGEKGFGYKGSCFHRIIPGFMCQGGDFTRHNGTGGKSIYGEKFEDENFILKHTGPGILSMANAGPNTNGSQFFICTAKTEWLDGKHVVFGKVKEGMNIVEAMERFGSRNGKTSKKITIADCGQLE

Row | Compound | IC50 ([1]; Homo sapiens, NCI-H358, 120 h) | IC50 [2] | IC50 [3] | IC50 [4] | IC50 [5] | IC50 [6] | IC50 [7] | IC50 [8] | IC50 [9] | EC50 ([10]; Homo sapiens) | IC50 ([11]; Homo sapiens, NCI-H358, 120 h) | IC50 [12] | IC50 [1] | EC50 [10] | IC50 [11]
1 | CCn1c(-c2cnccc2COC)c2c3cc(ccc31)-c1cc(O)cc(c1)C[C@H](NC(=O)[C@H](C(C)C)N(C)C(=O)[C@H]1CCN(C(=O)C(C)(C)N)C1)C(=O)N1CCC[C@H](N1)C(=O)OCC(C)(C)C2 [Compound A15] | 1 to 10 µM | 0.01 to 0.1 µM | 0.1 to 1 µM | 0.1 to 1 µM | 0.1 to 1 µM | 0.1 to 1 µM | 0.1 to 1 µM | 0.1 to 1 µM | 0.1 to 1 µM | – | – | – | – | – | –
2 | CCn1c(-c2cnccc2COC)c2c3cc(ccc31)-c1cc(O)cc(c1)C[C@H](NC(=O)[C@H](C(C)C)N(C)C(=O)N1CCN(C)CC1)C(=O)N1CCC[C@H](N1)C(=O)OCC(C)(C)C2 [Compound A46] | 1 to 10 µM | 0.1 to 1 µM | 1 to 10 µM | 0.1 to 1 µM | 1 to 10 µM | 0.1 to 1 µM | 0.1 to 1 µM | 0.1 to 1 µM | 0.1 to 1 µM | – | – | – | – | – | –
3 | CCn1c(-c2cnccc2COC)c2c3cc(ccc31)-c1cc(O)cc(c1)C[C@H](NC(=O)[C@H](C(C)C)N(C)C(=O)[C@H]1CCN(C3COC3)C1)C(=O)N1CCC[C@H](N1)C(=O)OCC(C)(C)C2 [Compound A51] | 1 to 10 µM | 0.1 to 1 µM | 1 to 10 µM | 0.1 to 1 µM | 1 to 10 µM | 0.1 to 1 µM | 0.1 to 1 µM | 0.1 to 1 µM | 1 to 10 µM | < 5 µM | – | – | – | – | –
4 | CCn1c(-c2cnccc2COC)c2c3cc(ccc31)-c1cc(O)cc(c1)C[C@H](NC(=O)[C@H](C(C)C)N(C)c1ncco1)C(=O)N1CCC[C@H](N1)C(=O)OCC(C)(C)C2 [Compound A52] | 1 to 10 µM | 0.1 to 1 µM | > 10 µM | 1 to 10 µM | 1 to 10 µM | 1 to 10 µM | 1 to 10 µM | 1 to 10 µM | 1 to 10 µM | – | – | – | – | – | –
5 | CCn1c(-c2cccnc2COC)c2c3cc(ccc31)-c1cc(O)cc(c1)C[C@H](NC(=O)[C@H](C(C)C)N(C)C(C)=O)C(=O)N1CCC[C@H](N1)C(=O)OCC(C)(C)C2 [Compound A55] | 1 to 10 µM | 1 to 10 µM | > 10 µM | 1 to 10 µM | 1 to 10 µM | 0.1 to 1 µM | – | 1 to 10 µM | – | < 5 µM | – | – | – | – | –
6 | CCn1c(-c2cnccc2COC)c2c3cc(ccc31)-c1cc(O)cc(c1)C[C@H](NC(=O)[C@@H](NC(=O)c1ncco1)C(C)C)C(=O)N1CCC[C@H](N1)C(=O)OCC(C)(C)C2 [Compound A56] | > 10 µM | 1 to 10 µM | > 10 µM | 1 to 10 µM | 1 to 10 µM | 1 to 10 µM | 1 to 10 µM | 1 to 10 µM | 1 to 10 µM | < 5 µM | – | – | – | – | –
7 | CCn1c(-c2cnccc2COC)c2c3cc(ccc31)-c1cc(O)cc(c1)C[C@H](NC(=O)[C@@H](OC(=O)N1CCCC1)C(C)C)C(=O)N1CCC[C@H](N1)C(=O)OCC(C)(C)C2 [Compound A59] | 1 to 10 µM | 1 to 10 µM | > 10 µM | 1 to 10 µM | 1 to 10 µM | > 10 µM | 1 to 10 µM | 1 to 10 µM | 1 to 10 µM | – | – | – | – | – | –
8 | (2S)—N-[(8S,14S)-22-ethyl-4-hydroxy-21-[4-(methoxymethyl)pyridin-3-yl]-18,18-dimethyl-9,15-dioxo-16-oxa-10,22,28-triazapentacyclo [18.5.2.1^2,6.1^10,14.0^23,27]nonacosa-1 (26),2,4,6 (29),20,23 (27),24-heptaen-8-yl]-2-{1-[(3S)-1-{2-[(3R)-3-hydroxypyrrolidin-1-yl]acetyl}pyrrolidin-3-yl]-N-methylformamido}-3-methylbutanamide [Compound A6] | – | 0.01 to 0.1 µM | 0.1 to 1 µM | 0.01 to 0.1 µM | 0.1 to 1 µM | 0.1 to 1 µM | – | – | – | – | – | – | 1 to 10 µM | < 5 µM | 0.1 to 1 µM

Now from value to compound, other results behind:

Row | IC50 ([1]; Homo sapiens, NCI-H358, 120 h) | IC50 [2] | IC50 [3] | IC50 [4] | IC50 [5] | IC50 [6] | IC50 [7] | IC50 [8] | IC50 [9] | EC50 ([10]; Homo sapiens) | IC50 ([11]; Homo sapiens, NCI-H358, 120 h) | Compound | IC50 [12] | IC50 [1] | EC50 [10] | IC50 [11]
9 | > 10 µM | 0.01 to 0.1 µM | 0.1 to 1 µM | 0.1 to 1 µM | 0.1 to 1 µM | 0.1 to 1 µM | 0.1 to 1 µM | 0.1 to 1 µM | 0.1 to 1 µM | – | – | CCn1c(-c2cnccc2COC)c2c3cc(ccc31)-c1cc(O)cc(c1)C[C@H](NC(=O)[C@H](C(C)C)N(C)C(=O)CN/C(N)=N/C#N)C(=O)N1CCC[C@H](N1)C(=O)OCC(C)(C)C2 [Compound A62] | – | – | – | –
10 | > 10 µM | 1 to 10 µM | > 10 µM | 1 to 10 µM | 1 to 10 µM | 1 to 10 µM | 1 to 10 µM | 1 to 10 µM | 1 to 10 µM | – | – | CCn1c(-c2cnccc2COC)c2c3cc(ccc31)-c1cc(O)cc(c1)C[C@H](NC(=O)[C@H](C(C)C)N(C)c1cnc(N)[nH]c1=O)C(=O)N1CCC[C@H](N1)C(=O)OCC(C)(C)C2 [Compound A63] | – | – | – | –
11 | 1 to 10 µM | 0.1 to 1 µM | 0.1 to 1 µM | 0.1 to 1 µM | 1 to 10 µM | 0.1 to 1 µM | 0.1 to 1 µM | 0.1 to 1 µM | 0.1 to 1 µM | – | – | CCn1c(-c2cnccc2COC)c2c3cc(ccc31)-c1cc(O)cc(c1)C[C@H](NC(=O)[C@H](C(C)C)N(C)C(=O)CCCCN)C(=O)N1CCC[C@H](N1)C(=O)OCC(C)(C)C2 [Compound A66] | – | – | – | –
12 | > 10 µM | 0.1 to 1 µM | 1 to 10 µM | 0.1 to 1 µM | 1 to 10 µM | 0.1 to 1 µM | 1 to 10 µM | 1 to 10 µM | – | < 5 µM | 0.01 to 0.1 µM | CCn1c(-c2ccccc2CCOC)c2c3cc(ccc31)-c1cc(O)cc(c1)C[C@H](NC(=O)[C@H](C(C)C)N(C)C(=O)CNC(=N)N)C(=O)N1CCC[C@H](N1)C(=O)OCC(C)(C)C2 [Compound A69] | – | – | – | –
13 | 0.01 to 0.1 µM | 0.01 to 0.1 µM | 0.1 to 1 µM | 0.01 to 0.1 µM | – | 0.01 to 0.1 µM | 0.01 to 0.1 µM | 0.01 to 0.1 µM | 0.01 to 0.1 µM | – | – | CCn1c(-c2cccnc2[C@H](C)OC)c2c3cc(ccc31)-c1cc(O)cc(c1)C[C@H](NC(=O)[C@H](C(C)C)N(C)C(=O)C1(F)CC1)C(=O)N1CCC[C@H](N1)C(=O)OCC(C)(C)C2 [Compound A165] | – | – | – | –
14 | 0.1 to 1 µM | < 0.01 µM | – | 0.01 to 0.1 µM | 0.01 to 0.1 µM | – | 0.01 to 0.1 µM | – | < 0.01 µM | – | – | CCn1c(-c2cccnc2[C@H](C)OC)c2c3cc(ccc31)-c1cc(O)cc(c1)C[C@H](NC(=O)[C@H](C(C)C)N(C)C(=O)[C@H]1C[C@@H]1O)C(=O)N1CCC[C@H](N1)C(=O)OCC(C)(C)C2 [Compound A323] | 0.1 to 1 µM | – | – | –
15 | 0.1 to 1 µM | 0.01 to 0.1 µM | 0.01 to 0.1 µM | 0.01 to 0.1 µM | 0.1 to 1 µM | – | 0.01 to 0.1 µM | 0.01 to 0.1 µM | 0.01 to 0.1 µM | – | – | CCn1c(-c2cccnc2[C@H](C)OC)c2c3cc(ccc31)-c1cc(O)cc(c1)C[C@H](NC(=O)[C@H](C(C)C)N(C)C(=O)[C@H]1CCN(C(=O)C(C)(C)NC)C1)C(=O)N1CCC[C@H](N1)C(=O)OCC(C)(C)C2 [Compound A381] | 1 to 10 µM | – | – | –

— patent US20250195521A1 (Revolution Medicines, Inc., priority 2020, published 2025)
